From paper PMC9525908, “α-Crystallin chaperone mimetic drugs inhibit lens γ-crystallin aggregation: Potential role for cataract prevention” (The Journal of Biological Chemistry, 2022)
“Also recorded” adds a separate entry of the source.

Assays:
Assay type in all cases: biochemical
WT-HγD crystallin = biological target: T1, WT-HγD crystallin (Homo sapiens, UniProt P07320); assay: Thermal unfolding of WT-HγD by fluorescence ratio (Tm); details: 100 μM agent, 360/320 nm ratio; 78 ± 0.1 °C without agent
T1 construct: made in house; host or cells: E. coli BL21(DE3) pLysS, pET3d vector
T1 sequence (P07320 1-174): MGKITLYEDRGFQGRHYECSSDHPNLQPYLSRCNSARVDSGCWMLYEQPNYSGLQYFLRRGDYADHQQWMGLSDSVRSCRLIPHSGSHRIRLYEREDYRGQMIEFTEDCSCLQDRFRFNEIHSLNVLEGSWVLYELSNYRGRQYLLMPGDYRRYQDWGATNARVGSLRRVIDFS
Excerpt: His-tag free recombinant HγD crystallin produced in Escherichia coli using pET3d or pET17b expression vector was used to investigate the effects of compounds C and G against thermal-induced unfolding and aggregate formation. The antiaggregation potency of drug C and G was reconfirmed by dynamic light scattering (DLS) (Fig. 2A). […] There is a decrease in the size of aggregates from as high as 7261 nm without drugs to 30.5 nm with drug C and 84.9 nm with drug G. Drug M has moderate activity with mean aggregate size of 569 nm radius (Table S2). […] Furthermore, we investigated whether these drugs can prevent thermal unfolding of HγD (Fig. 2C). […] It is the temperature at which 50% of the protein unfolds.
(§1) Thermal denaturation study was monitored using fluorescence spectroscopy. Protein solutions (10 μM) in the presence and absence of drugs or bis-ANS (100 μM) were heated continuously from 30 to 95 °C, and the fluorescence data were collected every 5 °C after 1 min equilibration at the given temperature. Unfolding data were fit to Greene and Pace’s two-state model ([82]) using GraphPad Prism software (GraphPad Software, Inc).

HγD-ox [1] = biological target: T2, HγD-ox (Homo sapiens, UniProt P07320); assay: Thermal unfolding (Tm) of oxidized HγD; details: 100 μM agent, 360/320 nm ratio; 68 ± 0.07 °C without agent
T2 construct: made in house; host or cells: Escherichia coli BL21(DE3) pLysS, pET3d vector
T2 sequence (P07320 1-174): T1 sequence (P07320 1-174)
Excerpt: (§2) In postsubmission experiments, we attempted to find mechanistic clues relevant to the use of an H2O2 oxidation step prior to the thermal stress used during the initial drug screen. For this reason, we did a comparative study of oxidized (HγD-ox) versus native HγD (HyD-nat), hypothesizing that bis-ANS would both act like the drugs and provide information on the role of exposed hydrophobicity ([40]). HγD was oxidized in diethylenetriaminepentaacetic acid […] phosphate buffer to facilitate hydroxyl radical formation and protein damage, followed by dialysis against DTPA-treated buffer to eliminate the known proaggregating effects of divalent metals ([32]) in the subsequent steps. […] Overall protective effects were more pronounced for the oxidized than nonoxidized form of HγD. […] In the hope to obtain clues on the impact of bis-ANS, drugs C, G, and M on protein aggregation status, native PAGE was performed (Fig. 3G). Polymers greater than 250 kD are present in unheated HγD-nat but only the size of 75 to 100 kD in HγD-ox. […] Other techniques will be needed to assess the relationship between drugs and aggregate size.
as §1

HγD-ox [2] = biological target: T2, HγD-ox; assay: Turbidity (600 nm) of oxidized HγD heated 10 min at 72 °C; details: 1.4 mg/ml with DTPA, 100 and 500 μM bis-ANS, 100 μM drug C, 500 μM drug M
Excerpt: as §2

O=S(=O)(O)c1cccc2c(-c3ccc(Nc4ccccc4)c4c(S(=O)(=O)O)cccc34)ccc(Nc3ccccc3)c12 [bis-ANS, bis-8-anilino-1-naphthalene sulfonic acid]
Tm of HγD-nat (WT-HγD crystallin): 82 ± 0.02 °C
Tm of HγD-ox (HγD-ox [1]): 78 ± 0.1 °C
Effect on aggregation/turbidity of HγD-ox (HγD-ox [2]): strongly suppressed; also recorded: potently inhibited aggregation
